US8501981B2, “CXCR2 inhibitors” (SANOFI, priority 2006, dated 2013)

The compounds below were run against human CXCR2 (Homo sapiens (Human), UniProt P25025) (assay: Determination of CXCR2 inhibition: Calcium Fluorescence Assay (FLIPR)). Details: chemokine IL-8; CHO-K1 cells stably transfected with human CXCR2 and Gα16.
Type: cell-based
Excerpt: Determination of CXCR2 inhibition: Calcium Fluorescence Assay (FLIPR)
The assay is based on the detection of intracellular calcium changes detected by the selective, calcium-chelating dye, Fluo-4 (Molecular Probes). A large fluorescence intensity increase is observed upon calcium association with Fluo-4. […] By co-expressing the CXCR2 receptor and the promiscuous Gα16 protein, activation of this chemokine receptor is directed into this phospholipase C cascade resulting in intracellular calcium mobilization.
The CHO—K1 cells stably transfected with human CXCR2 and the promiscuous Gα16 protein were maintained in a log phase of growth at 37° C. and 5% CO2 in the following media: Iscove's, 10% FBS, 1× Penicillin-Streptomycin, 400 μg/mL g418 and 350 μg/mL Zeocin. Approximately 24-48 hours prior to the assay, 20,000-30,000 cells/well were plated onto a 96-well black/clear bottomed assay plate (Becton Dickinson) with a well volume of 180 μl. For dye-loading the culture medium was carefully removed and replaced by 100 μl/well dye solution (4 μM Fluo-4 in 135 mM NaCl, 5 mM KCl, 1 mM magnesium sulphate, 5 mM glucose, 20 mM hepes, 2.5 mM probenecid; pH 7.4). Cells were incubated for 1 h at 37° C., and then washed 3× with buffer. After washing 90 μl buffer/well were left. Increasing concentrations of compound was added in 45 μl buffer (4× concentrated) followed by 10 min incubation at 37° C. Then the chemokine (10-100 nM) was applied in 45 μl buffer (4× concentrated) and the measurement performed for 2 min. The IC50 value of a compound was determined by calculation of % inhibition of total calcium response to the chemokine.

Chain of human CXCR2 (P25025 whole entry): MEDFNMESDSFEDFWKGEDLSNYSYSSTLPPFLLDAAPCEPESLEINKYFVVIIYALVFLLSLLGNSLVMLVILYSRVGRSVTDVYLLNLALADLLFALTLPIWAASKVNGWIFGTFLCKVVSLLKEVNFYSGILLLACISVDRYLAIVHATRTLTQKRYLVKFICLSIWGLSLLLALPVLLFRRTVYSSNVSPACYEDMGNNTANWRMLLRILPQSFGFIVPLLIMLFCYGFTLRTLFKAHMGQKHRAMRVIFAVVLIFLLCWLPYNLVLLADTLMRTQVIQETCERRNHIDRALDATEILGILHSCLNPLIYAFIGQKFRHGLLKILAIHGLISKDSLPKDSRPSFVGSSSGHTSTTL

IC50 | Compound
< 10 µM | CC(C)(NC(=O)c1cc(F)c2ccccc2c1OCCc1ccccc1)C(=O)O [Example 17, 2-[(4-Fluoro-1-phenethyloxy-naphthalene-2-carbonyl)-amino]-2-methyl-propionic acid]
< 10 µM | CC(C)(NC(=O)c1cc(F)c2ccccc2c1OCCCc1ccccc1)C(=O)O [Example 18, 2-{[4-Fluoro-1-(3-phenyl-propoxy)-naphthalene-2-carbonyl]-amino}-2-methyl-propionic acid]
< 10 µM | CC(C)(NC(=O)c1cc(F)c2ccccc2c1OCCOc1ccccc1)C(=O)O [Example 20, 2-{[4-Fluoro-1-(2-phenoxy-ethoxy)-naphthalene-2-carbonyl]-amino}-2-methyl-propionic acid]
1.76 µM | CC(C)(NC(=O)c1sc2ccccc2c1OCCOc1ccccc1)C(=O)O [Example 46, 2-Methyl-2-{[3-(2-phenoxy-ethoxy)-benzo[b]thiophene-2-carbonyl]-amino}-propionic acid]
0.92 µM | CC(CCc1ccccc1)Oc1c(C(=O)NC2(C(=O)O)CCCC2)ccc2ccccc12 (centres unmarked) [Example 52, 1-{[1-(1-Methyl-3-phenyl-propoxy)-naphthalene-2-carbonyl]-amino}-cyclopentanecarboxylic acid]
2.56 µM | CC(C)CC(C)(NC(=O)c1ccc2ccccc2c1OCCOc1ccccc1)C(=O)O (centres unmarked) [Example 55, 2,4-Dimethyl-2-{[1-(2-phenoxy-ethoxy)-naphthalene-2-carbonyl]-amino}-pentanoic acid]
1.25 µM | CC(C)(NC(=O)c1ccc2ccccc2c1OCCOc1ccc(F)c(Cl)c1)C(=O)O [Example 73, 2-({1-[2-(3-Chloro-4-fluoro-phenoxy)-ethoxy]-naphthalene-2-carbonyl}-amino)-2-methyl-propionic acid]
< 10 µM | O=C(NC1(C(=O)O)CCC1)c1ccc2ccccc2c1OCCC1CCCCC1 [Example 97, 1-{[1-(2-Cyclohexyl-ethoxy)-naphthalene-2-carbonyl]-amino}-cyclobutanecarboxylic acid]
< 10 µM | O=C(NC1(C(=O)O)CCC1)c1ccc2ccccc2c1OCCCc1ccccc1 [Example 99, 1-{[1-(3-Phenyl-propoxy)-naphthalene-2-carbonyl]-amino}-cyclobutanecarboxylic acid]
< 10 µM | O=C(NC1(C(=O)O)CCC1)c1ccc2ccccc2c1OCCOc1ccccc1 [Example 100]
3.23 µM | O=C(NC1(C(=O)O)CCC1)c1ccc2ccccc2c1OCCOc1ccc(F)cc1 [Example 105, 1-({1-[2-(4-Fluoro-phenoxy)-ethoxy]-naphthalene-2-carbonyl}-amino)-cyclobutanecarboxylic acid]
< 10 µM | CC(C)(NC(=O)c1ccc2ccccc2c1OCCCc1ccc(Cl)cc1)C(=O)O [Example 106, 2-({1-[3-(4-Chloro-phenyl)-propoxy]-naphthalene-2-carbonyl}-amino)-2-methyl-propionic acid]
< 10 µM | CCCCC(CC)(NC(=O)c1ccc2ccccc2c1OCCCc1ccccc1)C(=O)O (centres unmarked) [Example 116, 2-Ethyl-2-{[1-(3-phenyl-propoxy)-naphthalene-2-carbonyl]-amino}-hexanoic acid]
< 10 µM | CCCCC(CC)(NC(=O)c1ccc2ccccc2c1OCCOc1ccccc1)C(=O)O (centres unmarked) [Example 117, 2-Ethyl-2-{[1-(2-phenoxy-ethoxy)-naphthalene-2-carbonyl]-amino}-hexanoic acid]
< 10 µM | CCCCC(CC)(NC(=O)c1ccc2ccccc2c1OCCCC1CCCCC1)C(=O)O (centres unmarked) [Example 119, 2-{[1-(3-Cyclohexyl-propoxy)-naphthalene-2-carbonyl]-amino}-2-ethyl-hexanoic acid]
< 10 µM | CC(C)(NC(=O)c1ccc2ccccc2c1OCCc1ccccc1)C(=O)O [Example 126, 2-Methyl-2-[(1-phenethyloxy-naphthalene-2-carbonyl)-amino]-propionic acid]
< 10 µM | C[C@@H](NC(=O)c1ccc2ccccc2c1OCCc1ccc(F)cc1)C(=O)O [Example 130, (R)-2-({1-[2-(4-Fluoro-phenyl)-ethoxy]-naphthalene-2-carbonyl}-amino)-propionic acid]
< 10 µM | CC(CCc1ccccc1)Oc1c(C(=O)NC(C)(C)C(=O)O)ccc2ccccc12 (centres unmarked) [Example 140, 2-Methyl-2-{[1-(1-methyl-3-phenyl-propoxy)-naphthalene-2-carbonyl]-amino}-propionic acid]
< 10 µM | CC(C)(NC(=O)c1ccc2ccccc2c1C#CCOc1ccccc1)C(=O)O [Example 165, 2-Methyl-2-{[1-(3-phenoxy-prop-1-ynyl)-naphthalene-2-carbonyl]-amino}-propionic acid]
1.67 µM | CC(C)(NC(=O)c1ccc2ccccc2c1C#CCCCc1ccccc1)C(=O)O [Example 166, 2-Methyl-2-{[1-(5-phenyl-pent-1-ynyl)-naphthalene-2-carbonyl]-amino}-propionic acid]
